# Results taken from PubChem BioAssay (NCI).
# Where “and” joins values, the source holds several entries; their conditions need not be identical. Equal values may be shown once.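 All cell lines were grown in 96-well plates and treated with compound for 48 hours. GI50 = concentration required for 50% inhibition of growth. The concentration for full growth arrest is given as TGI.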 *1 amine or outer side, *2 acyl side, *3 side chain or, on linkers, in order; H or OH if unused. Where a SMILES comes first, the peptide text is derived from it. Bridges are numbered along the chain shown (N, C = ends). [ ]: non-standard residue; d: D form. ξ: configuration not given here. X4 = CCC(C)C(N[*:1])C(O)CC(=O)O[C@H](C(=O)C(C)C(=O)[*:2])C(C)C; NMeY = CN[C@@H](Cc1ccc(O)cc1)C(=O)O; X9 = O=C([C@@H]1CC(O)CN1[*:1])[*:2]; ξNMeL = CNC(CC(C)C)C(=O)O; ξT = CC(O)C(N)C(=O)O
# Legend:
# Test in all cases: inhibition of tumour cell growth, NCI panel, 48 h
# [1] = test system: K-562 leukemia
# [2] = test system: M14 melanoma
# [3] = test system: MDA-MB-231 breast
# [4] = test system: NCI-H460 lung
# [5] = test system: OVCAR-4 ovarian
# [6] = test system: OVCAR-8 ovarian
# [7] = test system: SN12C renal
# [8] = test system: SNB-19 CNS
# [9] = test system: T-47D breast
# [10] = test system: U251 CNS
SMILES,GI50 [1],TGI [1],GI50 [2],TGI [2],GI50 [3],TGI [3],GI50 [4],TGI [4],GI50 [5],TGI [5],GI50 [6],TGI [6],GI50 [7],TGI [7],GI50 [8],TGI [8],GI50 [9],TGI [9],GI50 [10],TGI [10]
COc1cc(C)cc2c1OC(c1ccccc1)CC2=O (stereo unspecified),> 100 µM,> 100 µM,> 100 µM,> 100 µM,> 100 µM,> 100 µM,> 100 µM,> 100 µM,> 100 µM,> 100 µM,> 100 µM,> 100 µM,> 100 µM,> 100 µM,> 100 µM,> 100 µM,> 100 µM,> 100 µM,> 100 µM,> 100 µM
Cn1cnc2c(F)c(Nc3ccc(Br)cc3Cl)c(C(=O)NOCCO)cc21,> 10 µM and 12.3 µM,> 100 µM,0.0271 µM and < 0.0144 µM,> 6.91 µM and 4.53 µM,0.822 µM and 1.94 µM,> 100 µM,> 10 µM and 32.3 µM,> 100 µM,> 10 µM and 22.7 µM,> 100 µM,> 10 µM and 67.9 µM,> 100 µM,> 10 µM and 47.6 µM,> 100 µM,> 10 µM and 40.4 µM,> 100 µM,> 10 µM and 82.4 µM,> 100 µM,> 8.16 µM and 30.1 µM,> 100 µM
CCCCCC(=O)N1c2ccccc2NC2=C(C(=O)CC(c3ccc(OC)c(OC)c3)C2)C1c1ccc(C(F)(F)F)cc1 (stereo unspecified),> 100 µM,> 100 µM,,,20.4 µM,> 100 µM,> 100 µM,> 100 µM,15.8 µM,> 100 µM,> 100 µM,> 100 µM,> 100 µM,> 100 µM,> 100 µM,> 100 µM,> 100 µM,> 100 µM,> 100 µM,> 100 µM
O=C1C(NCCO)=C(N2CC2)C(=O)C(NCCO)=C1N1CC1,,84.7 µM,,> 100 µM,,> 100 µM,,> 66.2 µM,,> 70.8 µM,,> 85.7 µM,,56.7 µM,,> 100 µM,,> 100 µM,,> 71.6 µM
COc1cc(N2CCC(N(C)C)CC2)ccc1Nc1ncc(Cl)c(Nc2ccccc2P(C)(C)=O)n1,,> 100 µM,2.23 µM and 0.503 µM,15.3 µM and > 4.88 µM,1.22 µM and 0.333 µM,7.37 µM and > 5.39 µM,1.92 µM and 0.385 µM,12.9 µM and > 3.67 µM,0.448 µM and 0.615 µM,10.8 µM and > 10 µM,2.77 µM and 0.926 µM,23.4 µM and > 10 µM,0.971 µM and 0.398 µM,> 72.8 µM,2.25 µM and 1.07 µM,98.7 µM and > 10 µM,7.03 µM and 1.43 µM,38.5 µM and > 10 µM,1.42 µM and 0.713 µM,9.94 µM and > 10 µM
S=C(Nc1ccccc1)c1ccccn1,48.4 µM,> 100 µM,28 µM,97.1 µM,51.2 µM,> 100 µM,63.2 µM,> 100 µM,52.4 µM,> 100 µM,75.3 µM,> 100 µM,95.9 µM,> 100 µM,> 100 µM,> 100 µM,> 100 µM,> 100 µM,38 µM,> 100 µM
OCCNc1nc(NCCO)nc(Nc2ccc(C3=NN(c4cc(Cl)cc(Cl)c4)C(c4ccc(Cl)cc4)C3)cc2)n1 (stereo unspecified),1.73 µM,3.74 µM,1.69 µM,3.23 µM,1.71 µM,3.42 µM,1.89 µM,3.66 µM,2 µM,5.02 µM,2.08 µM,4.75 µM,1.82 µM,3.47 µM,2.07 µM,4.12 µM,1.5 µM,3.88 µM,1.51 µM,3.04 µM
C[C@]12CC[C@H]3[C@@H](CCC4=CC(=O)CC[C@@H]43)[C@@H]1CC[C@@H]2OC1(O)C(=O)c2ccccc2C1=O,,> 100 µM,,> 100 µM,,> 100 µM,,> 100 µM,,> 100 µM,,> 100 µM,,34.4 µM,,> 100 µM,,> 100 µM,,> 100 µM
COc1ccc(NC2=C(Sc3nc(C)cc(C)n3)C(=O)N(Cc3ccccc3)C2=O)cc1Cl,> 160 µM,> 160 µM,> 160 µM,> 160 µM,127 µM,> 160 µM,> 160 µM,> 160 µM,107 µM,> 160 µM,99.2 µM,> 160 µM,,,> 160 µM,> 160 µM,25.1 µM,> 160 µM,55 µM,> 160 µM
C#Cc1cccc(NC(=O)Nc2ccc(NC(=O)CCl)cc2)c1,15.5 µM,53.9 µM,,,14.8 µM,34 µM,22 µM,> 82.5 µM,12.2 µM,28.6 µM,22.5 µM,> 82.5 µM,12.7 µM,29.8 µM,15.7 µM,40.8 µM,15.9 µM,69.8 µM,15.1 µM,35.2 µM
CCOC(=O)c1cc2c(cc1Cl)SC(N(c1ccc(F)cc1)S(=O)(=O)c1ccc(OC)cc1)=NS2(=O)=O,14.2 µM,31.1 µM,19.5 µM,49.1 µM,19.2 µM,53.5 µM,17 µM,36.2 µM,14.9 µM,39.5 µM,,,19.3 µM,50 µM,18.6 µM,51.2 µM,4.8 µM,21.9 µM,16.2 µM,34.7 µM
Cc1cccc(C(C)O)n1 (stereo unspecified),,> 100 µM,,> 100 µM,,> 100 µM,,> 100 µM,,> 100 µM,,> 100 µM,,> 100 µM,,> 100 µM,,> 100 µM,,> 100 µM
CC(C)(C)Cn1c(N)nc2ccc(-c3[nH]c(C(C)(C)C)nc3-c3ccc(F)cc3)nc21,3.73 µM,> 72.8 µM,11.4 µM,24.7 µM,12.3 µM,29.5 µM,7.46 µM,26.5 µM,13.3 µM,40.4 µM,10.8 µM,25.8 µM,5.57 µM,21.4 µM,11.7 µM,24.8 µM,5.34 µM,23.7 µM,10.8 µM,25.2 µM
C[C@]12CC[C@H]3[C@@H](CC=C4C[C@@H](O)CC[C@@]43C)[C@@H]1C/C(=C\c1cccc(OCCN3CCOCC3)c1)[C@@H]2O,11.6 µM,40.8 µM,24.3 µM,69.2 µM,87.6 µM,> 100 µM,> 100 µM,> 100 µM,> 100 µM,> 100 µM,> 100 µM,> 100 µM,> 100 µM,> 100 µM,> 100 µM,> 100 µM,6.46 µM,> 100 µM,> 100 µM,> 100 µM
FC(F)(F)c1ccc2c(c1)N(CCCN1CCN(C3CC3)CC1)c1ccccc1S2,3.98 µM,20.5 µM,15.1 µM,30.7 µM,10.9 µM,26.1 µM,5.99 µM,19.8 µM,11.1 µM,23.7 µM,13 µM,26.8 µM,13.3 µM,28.1 µM,17.1 µM,36.2 µM,12.5 µM,26.9 µM,4.94 µM,18 µM
O=C(Oc1ccccc1)c1cc(O)c(O)c(O)c1,5.78 µM,70.9 µM,11.9 µM,34 µM,26.2 µM,> 100 µM,4.54 µM,> 100 µM,14 µM,> 100 µM,9.82 µM,> 100 µM,9.73 µM,> 100 µM,13.8 µM,> 100 µM,18.1 µM,> 100 µM,10.7 µM,> 100 µM
COc1ccc2c(c1)[nH]c(=O)c1c3cccnc3cn21,0.0271 µM,19.8 µM,0.0265 µM,19.9 µM,0.299 µM,25.4 µM,0.0363 µM,2.06 µM,0.0735 µM,> 100 µM,0.0514 µM,21.2 µM,0.0802 µM,> 100 µM,0.0515 µM,> 100 µM,2.72 µM,31.6 µM,0.041 µM,12.2 µM
CNC(=O)c1cc(Oc2ccc3nc(NC(=O)Nc4ccc(Cl)c(Cl)c4)sc3c2)ccn1,> 100 µM,> 100 µM,2.13 µM,4.74 µM,2.15 µM,6.43 µM,2.43 µM,5.32 µM,2.06 µM,4.03 µM,2.36 µM,5.27 µM,3.92 µM,> 100 µM,1.99 µM,3.98 µM,2.65 µM,6.36 µM,1.83 µM,3.46 µM
COc1ccc(C2=NNC(c3ccc(-c4ccc(OC)cc4[N+](=O)[O-])o3)C2)cc1 (stereo unspecified),36.4 µM,> 100 µM,71.3 µM,> 100 µM,1.89 µM,43.6 µM,46.8 µM,> 100 µM,> 100 µM,> 100 µM,21.2 µM,75.5 µM,,,31.8 µM,> 100 µM,18.5 µM,88.1 µM,19.4 µM,50.3 µM
O=c1cc/c(=N\Nc2ccccc2)c(=O)/c1=N/Nc1ccccc1,> 50 µM,> 50 µM,> 50 µM,> 50 µM,> 50 µM,> 50 µM,> 50 µM,> 50 µM,> 50 µM,> 50 µM,> 50 µM,> 50 µM,> 50 µM,> 50 µM,> 50 µM,> 50 µM,> 50 µM,> 50 µM,> 50 µM,> 50 µM
CCCCCCC(C)CC(CCCCCC)NCCOC(=O)c1ccc([N+](=O)[O-])cc1 (stereo unspecified),,1.84 µM,12.4 µM and 4.53 µM,28.4 µM and 17.7 µM,,23.5 µM and 20.9 µM,13.7 µM and 5.28 µM,29.4 µM and 18.4 µM,,26.5 µM and 26.9 µM,,22.1 µM and 19.7 µM,,25.2 µM and 23.8 µM,,32.2 µM and 32.5 µM,,39.3 µM and 38.1 µM,,29.2 µM and 25.2 µM
CCC(C)C1NC(=O)C(NC(=O)C(CC(C)C)N(C)C(=O)[C@@H]2CC(O)CN2)C(C)OC(=O)[C@H](Cc2ccc(OC)cc2)N(C)C(=O)[C@@H]2CCCN2C(=O)[C@H](CC(C)C)NC(=O)C(C)C(=O)[C@H](C(C)C)OC(=O)CC1O (stereo partly specified) (H-[X9][ξNMeL][ξT][X4]LP[NMeY](Me); ester 3-C),,0.114 µM and 0.131 µM,,0.11 µM and 0.126 µM,0.0369 µM,,,0.134 µM and 1.1 µM,,0.091 µM and 0.704 µM,0.0238 µM,0.759 µM and 1.06 µM,0.0109 µM,0.0759 µM and 0.682 µM,,0.45 µM and 0.148 µM,,0.0657 µM and 0.0994 µM,,0.335 µM and 1.01 µM
COc1cc2c(cc1OCCCCCOc1cc(-c3ccc(F)cc3)nc(C)n1)N=C[C@@H]1CCCN1C2=O,> 21.6 µM,> 66.4 µM,> 45.5 µM,> 65.7 µM,> 39.5 µM,> 65.5 µM,> 36 µM,> 58.5 µM,> 40.6 µM,> 79.7 µM,> 37.3 µM,> 54.7 µM,> 44.2 µM,> 71.2 µM,> 46.2 µM,> 100 µM,6.27 µM,59.6 µM,> 34.8 µM,> 86.7 µM
CCOC(=O)C1CCC/C1=N\N=C(N)N (stereo unspecified) (tested in a mixture with another compound),,> 100 µM,,> 100 µM,,> 100 µM,,> 100 µM,,> 100 µM,,> 100 µM,,> 100 µM,,> 100 µM,,> 100 µM,,> 100 µM
COC(=O)c1c2c(c(C)[n+]([O-])c1C)C(=O)C=C(NCc1ccc(Cl)cc1)C2=O,0.0478 µM,5.25 µM,0.202 µM,1.68 µM,0.286 µM,3.62 µM,0.397 µM,1.71 µM,0.229 µM,1.03 µM,0.296 µM,1.44 µM,0.309 µM,1.24 µM,1.16 µM,2.39 µM,0.151 µM,1.7 µM,0.598 µM,1.88 µM
C=C1C(=O)O[C@H]2[C@H]1CC/C(COC(=O)NCCc1ccc(OC)cc1)=C\CC[C@@]1(C)O[C@@H]21,3.08 µM,10.3 µM,1.98 µM,4.78 µM,2.02 µM,5.17 µM,12.2 µM,35.2 µM,3.41 µM,13.6 µM,2.77 µM,7.7 µM,,,8.65 µM,23.1 µM,2.47 µM,6.52 µM,11.1 µM,23.5 µM
